The results in this text go back to US10501453B2, “Benzothiazole or benzoxazole compounds as SUMO activators” (Icahn School of Medicine at Mount Sinai, priority 2012, dated 2019).

For one data set, the system named is YFP-SUMO1. Briefly: YFP-SUMO1 accumulation (cell image) in HEK-293 cells expressing YFP-SUMO1 and pcDNA3.0-SERCA2a. The data set is classed as cell-based. To be noted: increase vs. DMSO; for fold induction at 10 µM: Homo sapiens, HEK293, 24 hours; for YFP accumulation: 10 μM, 24 hours. The source says: (§1) The following antibodies were used for immunoblotting and immunoprecipitation (IP): polyclonal anti-SERCA2a (21th century Biochem Inc.), monoclonal anti-GAPDH (Sigma-Aldrich, catalog no. G8795), monoclonal anti-SUMO 1 (Cell Signaling Technology Inc., catalog no. 4930), anti-mouse horseradish peroxidase (HRP) (Pierce Biotechnology Inc., catalog no. 32430), and anti-rabbit HRP (Pierce Biotechnology Inc., catalog no. 32460). YFP-tagged SUMO1, pcDNA3.0-SERCA2a, and HA-tagged Ubc9 plasmids were used for the transfection. The plasmid DNA was amplified in the Escherichia coli strain DH5a and extracted by using a commercial purification kit (Qiagen, catalog no. 12263). Purified plasmid was resuspended in sterile TE buffer (10 mM Tris-HCl and 1 mM EDTA, pH 7.6). Only the preparation highest purity (A260/A280>1.8) was used for transfection. 1 μg of each plasmid was used for transfection. HEK-293 cells (American Type Culture Collection, catalog no. CRL-1873) were grown at 37° C. and under a 5% CO2 humidified atmosphere in Dulbecco's modified Eagle's medium (DMEM, Cellgro, catalog no. 10-0 13-CM) containing 10% fetal bovine serum (SAFC Bioscience, catalog no. 12107) and 100 i.u of penicillin/ml and 100 μg of streptomycin/ml. HEK-293 cells were seeded at a density of 3-5×10^5 cells per 60 mm culture dish in DMEM. The cells were transiently transfected using Lipofectamine 2000 (Invitrogen, catalog no. 11668) with indicated expression plasmids. After 24 hours, the cells were treated with either small molecules or dimethyl sulfoxide (DMSO, Sigma-Aldrich, catalog no. D2650).
(§2) Each compound was added at 10 μM. DMSO was used as a control. After 24 hours at 37° C., SERCA2a SUMOylation and functional analysis were determined.
Cellular permeability and potential activity of the compounds were examined by tracking of the YFP-SUMO1. HEK-293 cells expressing YFP-SUMOI and pcDNA3.0-SERCA2a were incubated with either 10 μM DMSO or 10 μM small molecules for 24 hours at 37° C. Fluorescent signals were monitored by fluorescence microscopy. HA-tagged Ubc9 expressing cells were served as a positive control.
The ability of the Example compound to SUMOylate SERCA2a was examined using an in vitro system in HEK 293 cells where both SERCA2a and SUMO 1 are expressed. The cellular permeability and potential activity of the Example compounds was examined by tracking of the YFP-SUM01. HEK-293 cells expressing YFP-SUM01 and pcDNA3.0-SERCA2a were treated with either 10 μM DMSO or 10 μM indicated Example 1 for 24 hrs. Fluorescent signals were monitored by fluorescence microscopy. HA-Ubc9 expressing cells were served as a positive control. The SERCA2a SUMOylation profiling was then analyzed by using the same cells (FIG. 1B, WCL, whole cell lysates; S-SERCA2a, SUMOylated SERCA2a).

Data set [1] relates to HEK-293 cells. Kind of data set: Toxicity (Table 2; cytotoxicity in the compound screen).
Data set [2] has as its system adult rat ventricular myocytes (ARVMs). Briefly: Cell shortening/re-lengthening and calcium transient of ARVMs (IonOptix). The data set is classed as cell-based. Particulars: compared to DMSO control; 10 μM. Here is the method: Calcium-tolerant adult rat ventricular myocytes (ARVMs) were obtained from hearts of male Sprague-Dawley rats (250 to 300 g). The heart was excised and perfused with a standard enzymatic technique. ARVMs were plated on multi-chambered plates or culture dishes, pre-coated with laminin 2 μg/cm^2, at a density of 10^5 cells/cm^2 in DMEM without L-glutamine supplemented with 10 mmol/l HEPES, 3.7 mg/ml NaHCO3, 1 mg/ml glucose, 0.11 mg/ml sodium pyruvate, 2 mg/ml bovine serum albumin, 2 mmol/1 L-camitine, 5 mmol/1 creatine, 5 mmol/1 taurine, 1% penicillin-streptomycin, and 1% gentamycin. Following isolation, cells were allowed to settle for 1 hour. Cultures were incubated at 37° C., in an atmosphere of 5% CO2-95% air. Fresh medium was added gently as medium was being drawn off until the cultures had been thoroughly washed. Only quiescent, rod-shape cardiac myocytes were selected for IonOptix experiments.
as §2
Mechanical properties of ARVMs were assessed using an IonOptix MyoCam® system (IonOptix, Milton, Mass.). In brief, cells were placed in a Warner chamber mounted on the stage of an inverted microscope (Olympus, IX-70) and superfused (1 ml/min at 30° C.) with a buffer containing 131 mM NaCl, 4 mM KCl, 1 mM CaCh, 1 mM MgCh, 10 mM glucose, and 10 mM HEPES, pH 7.4. ARVMs were field stimulated with suprathreshold voltage and at a frequency of 0.5 Hz. […] SoftEdge software (IonOptix) was used to capture changes in cell length during shortening and re-lengthening.
ARVMs were placed in a chamber on an Olympus IX-70 inverted microscope and imaged through a Fluor 40× oil objective. ARVMs were exposed to light emitted by a 75 W lamp and passed through either a 360 or a 380 nm filter (bandwidths were ±15 nm), while being stimulated to contract at 0.5 Hz. Fluorescence emissions were detected between 480 and 520 nm by a photomultiplier tube after first illuminating cells at 360 nm for 0.5 s then at 380 nm for the duration of the recording protocol (333 Hz sampling rate). The 360 nm excitation scan was repeated at the end of the protocol and qualitative changes in intracellular Ca^2+ concentration ((Ca^2+]i) were inferred from the ratio of the fluorescence intensity at two wavelengths.
The effects of the Example compound was examined on isolated rat cardiomyocytes shortening and relaxation parameters. […] Effects of Example 1 on mechanical properties of the ARVMs were assessed using a video-based edge detection system (IonOptix). The time constant of the increase of force during the stretch decreased (tau), percentage of peak shortening (PS), maximal rate of relaxation and contraction were analyzed at 24 hrs postincubation of the compounds in culture media (N=10 ARVMs). The mechanical data were analyzed with student's t-test (FIG. 2A, P<0.05 compared to the DMSO treated cells). SERCA2a SUMOylation profiling was analyzed in a same set of ARVMs (FIG. 2B, WCL, whole cell lysates; S-SERCA2a, SUMOylated SERCA2a).

The next data set concerns SERCA2a. Kind of data set: SERCA2a SUMOylation assay in HEK-293 cells (immunoprecipitation/immunoblotting). Particulars: compared with DMSO control; 10 μM. It counts as cell-based.
From the text: as §1, §2
Equal amounts of protein from either small molecule treated or DMSO treated cells or immunoprecipitates were resolved by 7.5% SDS-PAGE and transferred to nitrocellulose membranes (Bio-Rad, catalog no. 162-0112). The membranes were blocked for 1 hour at room temperature with 5% non-fat milk (Cell Signaling Technology Inc., catalog no. 9999) in TBST (10 mM Tris-HCl, 150 mM NaCl, and 0.05% tween-20, pH 8.0). The blots were incubated with specific primary antibodies at 4° C. for overnight. The blots were then washed five times for 10 minutes each with TBST and incubated for 1 hour with HRP-conjugated secondary antibodies in TBST with 5% non-fat milk. After five times TBST washes, the protein bands were visualized with enhanced chemiluminescence (Pierce Biotechnology Inc., catalog no. 32132) and exposed to x-ray film (Denville Scientific Inc., catalog no. E3012). GAPDH expression provided an internal control.
Post-transfection (48 hours), the HEK-293 cells were rinsed twice with phosphate-buffered saline (PBS, Cellgro, catalog no. 21-040-CM) and lysed in 1% Nonidet P-40 lysis buffer (Boston Bioproducts, catalog no. BP-119) with 10 mM N-ethylmaleimide (NEM, Sigma-Aldrich, catalog no. N3876) and […] inhibitor cocktail (Complete Mini Tablet, Roche Applied Science, catalog no. 11836153001). 2 mg of protein were mixed with the anti-SERCA2a antibodies for overnight at 4° C. in lysis buffer. Pre-washed protein A-Separose beads (Pierce Biotechnology Inc., catalog no. 20333) was added to each sample and incubated 1 hour at 4° C. with gentle rocking. Immunocomplexes were washed with lysis buffer three times and precipitated by centrifugation at 12000×g for 10 seconds. The immunocomplexes were resuspended in SDS sample buffer and subjected to immunoblotting. Controls for the immunoprecipitations were performed using an anti-rabbit IgG equal to that of the primary precipitating antibody. Ten percent of whole cell lysates used in the immunoprecipitation was loaded for subsequent immunoblotting.
The ability of the Example compound to SUMOylate SERCA2a was examined using an in vitro system in HEK 293 cells where both SERCA2a and SUMO 1 are expressed. […]
On the technique in general: Immunoblotting shows a protein as a band on a membrane.

Data set [3] has as its system HEK-293 cells.
Where [4] appears, read: DMSO, organic solvent or mixture.

Values after ≈ are worked out from the molar mass of the structure shown. Where two headings read alike, the source gives them in different places.

On to `COc1ccc(-c2nnc(Nc3nc4c(F)cccc4s3)o2)cc1` [Example 4, N-(4-fluorobenzo[d]thiazol-2-yl)-5-(4-methoxyphenyl)-1,3,4-oxadiazol-2-amine], for which the fold induction (usually the ratio of treated to control signal) at 10 µM in the data set on YFP-SUMO1 is 2.34. Besides, the Toxicity entry in the data set with HEK-293 cells [1] is on record as “Non-toxic”. Further, in data set [2], the “Cardiac Contraction: Peak shortening” value was “Peak shortening 4.3x compared to DMSO control”. The “SERCA2a SUMOylation” value with SERCA2a is listed as “Increased 1.4x compared with DMSO control”. In addition, the solubility (in general, how much of the substance goes into solution per volume) in the data set “Solubility (Table 2)” (setting [4]) was found to be 10 mM (≈ 3420 µg/mL).

In the data set with YFP-SUMO1, `COc1cccc(-c2nnc(Nc3nc4c(F)cccc4s3)o2)c1` [Example 3, N-(4-fluorobenzo[d]thiazol-2-yl)-5-(3-methoxyphenyl)-1,3,4-oxadiazol-2-amine] gave a fold induction at 10 µM of 2.49. Also, the Toxicity entry in the data set on HEK-293 cells [1] was “Non-toxic”. In data set [2], the “Cardiac Contraction: Peak shortening” value is listed as “Peak shortening 2.5x compared to DMSO control”. The “SERCA2a SUMOylation” value in the data set on SERCA2a was “Increased 1.43x compared with DMSO control”. Moreover, the solubility in the data set “Solubility (Table 2)” (setting [4]) is 10 mM (≈ 3420 µg/mL).

As to `Fc1ccc(-c2nnc(Nc3nc4c(F)cccc4s3)o2)cc1` [Example 2, N-(4-fluorobenzo[d]thiazol-2-yl)-5-(4-fluorophenyl)-1,3,4-oxadiazol-2-amine], the fold induction at 10 µM with YFP-SUMO1 came out at 2.93. Further, the Toxicity result with HEK-293 cells [1] was “Non-toxic”. In data set [2], the “Cardiac Contraction: Peak shortening” value is reported as “Peak shortening 2.2x compared to DMSO control”. Further, the “SERCA2a SUMOylation” value in the data set on SERCA2a is recorded as “Increased 1.34x compared with DMSO control”. The solubility in the data set “Solubility (Table 2)” (setting [4]) turned out to be 10 mM (≈ 3300 µg/mL).

For `COc1ccc2nc(Nc3nnc(-c4ccc(Cl)cc4)o3)sc2c1` [Example 10, 5-(4-chlorophenyl)-N-(6-methoxybenzo[d]thiazol-2-yl)-1,3,4-oxadiazol-2-amine], the YFP accumulation entry in the data set with YFP-SUMO1 is “Active”. Moreover, the Toxicity in the data set on HEK-293 cells [1] is > 50%. Also, the “SERCA2a SUMOylation” value in the data set on SERCA2a is “Not statistically significant”. Moreover, the solubility in “Solubility (Table 2)” (setting [4]) was < 2.5 mM.

For “N-(6-fluorobenzo[d]thiazol-2-yl)-5-(4-methoxyphenyl)-1,3,4-oxadiazol-2-amine [Example 14]”, the YFP accumulation entry in the data set with YFP-SUMO1 is listed as “Active”. The “SERCA2a SUMOylation” value in the data set with SERCA2a is “Not statistically significant”. Further, the Toxicity in the data set with HEK-293 cells [3] was > 50%.

In the case of `COc1ccc(-c2nnc(Nc3nc4ccc(OC)cc4s3)o2)cc1` [Example 9, N-(6-methoxybenzo[d]thiazol-2-yl)-5-(4-methoxyphenyl)-1,3,4-oxadiazol-2-amine], the YFP accumulation entry with YFP-SUMO1 is “Active”. Besides, in the data set on HEK-293 cells [1], the Toxicity entry is reported as “Toxic”. Moreover, in the data set on SERCA2a, the “SERCA2a SUMOylation” value was “Not statistically significant”. For the same molecule, the solubility result in the data set “Solubility (Table 2)” (in DMSO (printed for the 10 mM cells)) is “Crystallized at 2.5”.

For the molecule `COc1ccc2nc(Nc3nnc(-c4ccccc4OC)o3)sc2c1` [Example 8, N-(6-methoxybenzo[d]thiazol-2-yl)-5-(2-methoxyphenyl)-1,3,4-oxadiazol-2-amine], the fold induction at 10 µM in the data set on YFP-SUMO1 was found to be 2.37. For the same molecule, the Toxicity in the data set with HEK-293 cells [1] came out at 30%. Moreover, in the data set with SERCA2a, the “SERCA2a SUMOylation” value is recorded as “Not statistically significant”. In the data set “Solubility (Table 2)” (setting [4]), the solubility was 10 mM (≈ 3540 µg/mL).
